Data reported in the supplement of paper PMC10307832.

compound: NC(=O)c1ccc(N(C(N)=O)c2c(F)cccc2F)nc1-c1ccc(F)cc1F [VX-702] + Cc1cc(Nc2cc(N3CCN(C)CC3)nc(Sc3ccc(NC(=O)C4CC4)cc3)n2)n[nH]1 [Tozasertib] (partner 0.1 µM); experiment: relative viability (nuclei count vs DMSO), 5 days (fraction); higher = more cells survive; details: first compound 0.02 µM
How it was run: (§1)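 Five library-drug doses in √10 steps were combined with a fixed anchor-drug dose, or a single drug was given alone, by pin tool to lung cancer cell lines in 1536-well plates the day after seeding. Nuclei were stained and counted after 5 days. Relative viability is the nuclei count in treated wells over that in vehicle wells, taken as the median of duplicate plates.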

| Cell Line | relative viability |
| --- | --- |
| ABC-1 | 0.152 |
| CAL-12T | 0.369 |
| NCI-H1944 | 0.252 |
| NCI-H2085 | 0.847 |
| NCI-H2228 | 0.314 |
| NCI-H441 | 0.722 |
| NCI-H522 | 0.522 |
| EMC-BAC-2 | 0.349 |
| NCI-H2170 | 0.722 |
| UMC-11 | 0.202 |
| NCI-H650 | 0.662 |
| LCLC-103H | 0.405 |
| NCI-H596 | 0.8 |
| HCC-827 | 0.427 |
| COR-L 105 | 0.225 |
| NCI-H2126 | 0.816 |
| NCI-H647 | 0.323 |
| LOU-NH91 | 0.75 |
| HCC-78 | 0.42 |
| HCC-44 | 0.765 |
| NCI-H1651 | 0.728 |
| NCI-H1755 | 0.599 |
| HOP-62 | 0.474 |
| PC-14 | 0.559 |
| NCI-H1650 | 0.353 |
| ChaGo-K-1 | 0.214 |
| A-427 | 0.241 |
| NCI-H1648 | 0.419 |
| HCC-366 | 0.156 |
| NCI-H1623 | 0.444 |

same assay, conditions: first compound 0.2 µM

| Cell Line | relative viability |
| --- | --- |
| ABC-1 | 0.162 |
| CAL-12T | 0.31 |
| NCI-H1944 | 0.245 |
| NCI-H2085 | 0.762 |
| NCI-H2228 | 0.319 |
| NCI-H441 | 0.546 |
| NCI-H522 | 0.551 |
| EMC-BAC-2 | 0.278 |
| NCI-H2170 | 0.696 |
| UMC-11 | 0.207 |
| LCLC-103H | 0.355 |
| NCI-H596 | 0.859 |
| HCC-827 | 0.396 |
| COR-L 105 | 0.338 |
| NCI-H2126 | 0.859 |
| NCI-H647 | 0.248 |
| LOU-NH91 | 0.657 |
| HCC-78 | 0.456 |
| HCC-44 | 0.893 |
| NCI-H1651 | 0.753 |
| NCI-H1755 | 0.592 |
| HOP-62 | 0.37 |
| PC-14 | 0.527 |
| NCI-H1650 | 0.305 |
| ChaGo-K-1 | 0.23 |
| A-427 | 0.169 |
| NCI-H1648 | 0.42 |
| HCC-366 | 0.095 |
| NCI-H1623 | 0.415 |

same assay, conditions: first compound 0.6325 µM

| Cell Line | relative viability |
| --- | --- |
| ABC-1 | 0.18 |
| CAL-12T | 0.273 |
| NCI-H1944 | 0.252 |
| NCI-H2085 | 0.864 |
| NCI-H2228 | 0.199 |
| NCI-H441 | 0.478 |
| NCI-H522 | 0.502 |
| EMC-BAC-2 | 0.272 |
| NCI-H2170 | 0.753 |
| UMC-11 | 0.186 |
| NCI-H650 | 0.801 |
| LCLC-103H | 0.456 |
| NCI-H596 | 0.87 |
| HCC-827 | 0.387 |
| COR-L 105 | 0.353 |
| NCI-H2126 | 0.783 |
| NCI-H647 | 0.208 |
| LOU-NH91 | 0.677 |
| HCC-78 | 0.325 |
| HCC-44 | 1.05 |
| NCI-H1651 | 0.624 |
| NCI-H1755 | 0.597 |
| HOP-62 | 0.41 |
| PC-14 | 0.551 |
| NCI-H1650 | 0.353 |
| ChaGo-K-1 | 0.223 |
| A-427 | 0.232 |
| NCI-H1648 | 0.397 |
| HCC-366 | 0.0851 |
| NCI-H1623 | 0.437 |

same assay, conditions: first compound 2 µM

| Cell Line | relative viability |
| --- | --- |
| ABC-1 | 0.207 |
| CAL-12T | 0.398 |
| NCI-H1944 | 0.253 |
| NCI-H2085 | 0.789 |
| NCI-H2228 | 0.23 |
| NCI-H441 | 0.641 |
| NCI-H522 | 0.588 |
| EMC-BAC-2 | 0.304 |
| NCI-H2170 | 0.871 |
| UMC-11 | 0.198 |
| NCI-H650 | 0.893 |
| LCLC-103H | 0.541 |
| NCI-H596 | 1.09 |
| HCC-827 | 0.393 |
| COR-L 105 | 0.355 |
| NCI-H2126 | 1.04 |
| NCI-H647 | 0.436 |
| LOU-NH91 | 0.628 |
| HCC-78 | 0.465 |
| HCC-44 | 1.3 |
| NCI-H1651 | 0.829 |
| NCI-H1755 | 0.653 |
| HOP-62 | 0.373 |
| PC-14 | 0.587 |
| NCI-H1650 | 0.494 |
| ChaGo-K-1 | 0.225 |
| A-427 | 0.221 |
| NCI-H1648 | 0.426 |
| HCC-366 | 0.0835 |
| NCI-H1623 | 0.426 |

compound: CC(C)(C)c1nc(-c2cccc(NS(=O)(=O)c3c(F)cccc3F)c2F)c(-c2ccnc(N)n2)s1 [Dabrafenib] + CCNC(=O)c1noc(-c2cc(C(C)C)c(O)cc2O)c1-c1ccc(CN2CCOCC2)cc1 [Luminespib] (partner 0.01 µM); experiment: as above; details: first compound 0.003 µM
How it was run: as §1

| Cell Line | relative viability |
| --- | --- |
| ABC-1 | 0.67 |
| CAL-12T | 0.362 |
| NCI-H1944 | 0.707 |
| NCI-H2085 | 0.402 |
| EMC-BAC-2 | 1.16 |
| NCI-H2170 | 0.759 |
| UMC-11 | 1.14 |
| LCLC-103H | 0.971 |
| HCC-827 | 0.387 |
| COR-L 105 | 0.852 |
| NCI-H2126 | 0.964 |
| LOU-NH91 | 0.262 |
| HCC-44 | 1.12 |
| NCI-H1651 | 0.65 |
| NCI-H1755 | 0.407 |
| HOP-62 | 0.936 |
| NCI-H1650 | 0.172 |
| ChaGo-K-1 | 0.57 |
| NCI-H1563 | 0.48 |

same assay, conditions: first compound 0.009487 µM

| Cell Line | relative viability |
| --- | --- |
| ABC-1 | 0.637 |
| CAL-12T | 0.517 |
| NCI-H1944 | 0.839 |
| NCI-H2085 | 0.484 |
| NCI-H2228 | 0.184 |
| NCI-H441 | 0.317 |
| NCI-H522 | 1.05 |
| EMC-BAC-2 | 1.23 |
| NCI-H2170 | 0.792 |
| UMC-11 | 1.12 |
| NCI-H650 | 0.832 |
| LCLC-103H | 1.01 |
| NCI-H596 | 1.03 |
| HCC-827 | 0.986 |
| COR-L 105 | 0.936 |
| NCI-H2126 | 0.878 |
| NCI-H647 | 0.282 |
| LOU-NH91 | 0.36 |
| HCC-44 | 1.01 |
| NCI-H1651 | 0.87 |
| NCI-H1755 | 0.542 |
| HOP-62 | 0.878 |
| PC-14 | 0.272 |
| NCI-H1650 | 0.201 |
| ChaGo-K-1 | 0.647 |
| A-427 | 1 |
| NCI-H1792 | 0.474 |
| NCI-H1563 | 0.491 |
| NCI-H1623 | 0.534 |

same assay, conditions: first compound 0.03 µM

| Cell Line | relative viability |
| --- | --- |
| CAL-12T | 0.408 |
| NCI-H1944 | 0.733 |
| NCI-H2085 | 0.453 |
| NCI-H2228 | 0.147 |
| NCI-H441 | 0.389 |
| NCI-H522 | 1.11 |
| EMC-BAC-2 | 1 |
| NCI-H2170 | 0.73 |
| UMC-11 | 0.85 |
| NCI-H650 | 0.688 |
| LCLC-103H | 0.923 |
| NCI-H596 | 0.691 |
| HCC-827 | 0.308 |
| COR-L 105 | 0.916 |
| NCI-H2126 | 0.965 |
| NCI-H647 | 0.138 |
| LOU-NH91 | 0.28 |
| HCC-44 | 1.17 |
| NCI-H1651 | 0.789 |
| NCI-H1755 | 0.434 |
| HOP-62 | 0.977 |
| PC-14 | 0.158 |
| NCI-H1650 | 0.229 |
| ChaGo-K-1 | 0.517 |
| A-427 | 0.772 |
| NCI-H1792 | 0.412 |
| NCI-H1563 | 0.508 |
| NCI-H1623 | 0.479 |

same assay, conditions: first compound 0.09487 µM

| Cell Line | relative viability |
| --- | --- |
| ABC-1 | 0.449 |
| CAL-12T | 0.445 |
| NCI-H1944 | 0.682 |
| NCI-H2085 | 0.428 |
| NCI-H2228 | 0.118 |
| NCI-H441 | 0.461 |
| EMC-BAC-2 | 1.13 |
| NCI-H2170 | 0.568 |
| UMC-11 | 0.939 |
| NCI-H650 | 0.56 |
| LCLC-103H | 0.897 |
| NCI-H596 | 0.885 |
| COR-L 105 | 0.949 |
| NCI-H2126 | 0.936 |
| NCI-H647 | 0.19 |
| LOU-NH91 | 0.343 |
| HCC-44 | 0.98 |
| NCI-H1651 | 0.831 |
| NCI-H1755 | 0.519 |
| HOP-62 | 0.795 |
| PC-14 | 0.149 |
| NCI-H1650 | 0.221 |
| ChaGo-K-1 | 0.529 |
| A-427 | 0.744 |
| NCI-H1792 | 0.423 |
| NCI-H1563 | 0.515 |
| NCI-H1623 | 0.579 |

same assay, conditions: first compound 0.3 µM

| Cell Line | relative viability |
| --- | --- |
| ABC-1 | 0.875 |
| CAL-12T | 0.32 |
| NCI-H1944 | 0.717 |
| NCI-H2085 | 0.51 |
| NCI-H2228 | 0.165 |
| NCI-H441 | 0.347 |
| NCI-H522 | 1.3 |
| EMC-BAC-2 | 1.28 |
| NCI-H2170 | 0.604 |
| UMC-11 | 1.07 |
| NCI-H650 | 0.461 |
| LCLC-103H | 1.01 |
| NCI-H596 | 0.927 |
| HCC-827 | 0.518 |
| COR-L 105 | 0.977 |
| NCI-H2126 | 0.913 |
| NCI-H647 | 0.217 |
| LOU-NH91 | 0.294 |
| HCC-44 | 0.861 |
| NCI-H1651 | 0.608 |
| NCI-H1755 | 0.577 |
| HOP-62 | 0.872 |
| PC-14 | 0.115 |
| NCI-H1650 | 0.188 |
| ChaGo-K-1 | 0.47 |
| A-427 | 1.14 |
| NCI-H1792 | 0.538 |
| NCI-H1563 | 0.574 |
| NCI-H1623 | 0.553 |

compound: CC(C)(C)c1nc(-c2cccc(NS(=O)(=O)c3c(F)cccc3F)c2F)c(-c2ccnc(N)n2)s1 [Dabrafenib] + Cc1nc(Nc2ncc(C(=O)Nc3c(C)cccc3Cl)s2)cc(N2CCN(CCO)CC2)n1 [Dasatinib] (partner 0.075 µM); experiment: as above; details: first compound 0.003 µM
How it was run: as §1

| Cell Line | relative viability |
| --- | --- |
| ABC-1 | 0.64 |
| CAL-12T | 0.493 |
| NCI-H1944 | 0.197 |
| NCI-H2085 | 0.246 |
| EMC-BAC-2 | 0.327 |
| NCI-H2170 | 0.597 |
| UMC-11 | 0.43 |
| LCLC-103H | 0.495 |
| HCC-827 | 0.44 |
| COR-L 105 | 0.316 |
| NCI-H2126 | 0.582 |
| NCI-H647 | 0.0445 |
| LOU-NH91 | 0.41 |
